Source: paper PMC3597455 (International Journal of Oncology, 2013)

Assays:
GPC3-specific CTLs = details: without an autoimmune response; cited from earlier work
[1] = tested on: RMA-S pulsed with mGPC3-1 peptide; assay: IFN-γ ELISPOT of mGPC3-1 peptide-specific CTL line against peptide-pulsed RMA-S; type: cell-based, mouse; details: CTL line 1×10^5, RMA-S 5×10^4 pulsed with 10 μg/ml peptide, 20 h
[2] = tested on: RMA-S pulsed with mGPC3-1 peptide; assay: Cytotoxicity assay; type: cell-based, mouse; details: mGPC3-1-specific CTL line against RMA-S pulsed with mGPC3-1 peptide; calcein AM, 4 h; non-pulsed RMA-S 2.2%
CD8-positive cells = assay: IFN-γ ELISPOT after mGPC3-1 peptide vaccine in STAM mice; type: in vivo, STAM mice C57BL/6N-NASH; details: STAM mice immunized seven times with mGPC3-1 peptide vaccine; CD8-positive cells against RMA-S pulsed with mGPC3-1 peptide; n=3

Sequence | induction of GPC3-specific CTLs (in words) (GPC3-specific CTLs) | IFN-γ release of CTL line to peptide-pulsed vs non-pulsed RMA-S (in words) [1] | % cytotoxicity [2] [%] | average number of spots (IFN-γ ELISPOT) (CD8-positive cells) [spots]
EYILSLEEL [GPC3_298–306] | can induce GPC3-specific CTLs |  |  | 
AMFKNNYPSL [mGPC3-1] |  | clearly released more IFN-γ | 16.4 | 100±74.3
FVGEFFTDV [GPC3_144–152] | can induce GPC3-specific CTLs |  |  | 
